From PMC5371824, “Phosphatidylinositol (4,5)-bisphosphate dynamically regulates the K2P background K^+ channel TASK-2” (Scientific Reports, 2017)
Numbering of substitutions follows the chain as printed.

Columns and labels:
Type in all cases: biochemical
[1] = molecular target: T1, TASK-2-K254C (Mus musculus, UniProt F6V9U5, K254C); assay: Excised inside-out patch recording, TASK-2-K254C mutant; parameters: key to MTSET effect: ✓ under “MTSET effect” indicates a significant increase in current after treatment with the methanesulfonate reagent; — in all cases stands for no significant effect
T1 construct: expressed in transfected cells; host or cells: HEK-293
T1 sequence (F6V9U5 1-502 K254C): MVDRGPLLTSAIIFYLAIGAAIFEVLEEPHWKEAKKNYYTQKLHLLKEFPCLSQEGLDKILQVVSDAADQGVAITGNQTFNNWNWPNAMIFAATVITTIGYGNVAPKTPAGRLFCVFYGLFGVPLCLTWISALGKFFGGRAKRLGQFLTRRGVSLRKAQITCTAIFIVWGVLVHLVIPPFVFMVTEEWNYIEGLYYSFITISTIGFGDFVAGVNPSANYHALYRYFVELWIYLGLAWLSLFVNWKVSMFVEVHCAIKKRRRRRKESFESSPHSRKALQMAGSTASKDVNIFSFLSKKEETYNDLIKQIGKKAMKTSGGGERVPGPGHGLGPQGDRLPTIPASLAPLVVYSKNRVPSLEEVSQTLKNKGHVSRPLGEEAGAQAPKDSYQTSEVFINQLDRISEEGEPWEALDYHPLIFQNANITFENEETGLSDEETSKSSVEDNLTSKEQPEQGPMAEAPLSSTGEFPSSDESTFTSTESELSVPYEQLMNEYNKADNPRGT
Procedure: Figure 6 Scanning of potential sites of interaction of TASK-2 with PI(4,5)P2 by cysteine mutagenesis of intracellular basic residues. (A) Schematic representation of TASK-2 topology showing the sequences of segments of the protein predicted to be intracellular or intracellular-facing. Basic residues are highlighted in red. (B) Recording from an excised inside-out patch of membrane taken from a HEK-293 cell over-expressing TASK-2. The patch was held at −60 mV in the presence of 1 mM ATP. At the intervals indicated by the boxes the intracellular aspect of the membrane was exposed to 300 μM Neomycin and then to 100 μM TPeA. At the end of the TPeA period the patch was additionally exposed to 1 mM MTSET as shown by the black box. (C and D) experiments as in (B), but with inside-out membrane patches obtained from cells expressing the mutants TASK-2-H327C and TASK-2-K297C respectively. In D the reducing agent DTT was also added at 2 mM. (E) Summary of experiments comparing the current before and after treatment with MTSET. […]
(§1) Recordings in the inside-out isolated patch configuration were performed in the gap-free mode at −60 mV. […] Traces shown are prints from crude Clampfit screen shots and quantification was done using the average currents were calculated at intervals using Clampfit after baseline adjustment.

[2] = molecular target: T2, TASK-2-K297C (Mus musculus, UniProt F6V9U5, K297C); assay: Excised inside-out patch recording, TASK-2-K297C mutant; parameters: key to MTSET effect: ✓ under “MTSET effect” indicates a significant increase in current after treatment with the methanesulfonate reagent; — in all cases stands for no significant effect
T2 construct: expressed in transfected cells; host or cells: HEK-293
T2 sequence (F6V9U5 1-502 K297C): T1 sequence (F6V9U5 1-502 K254C) with C254K, K297C
Procedure: Figure 6 Scanning of potential sites of interaction of TASK-2 with PI(4,5)P2 by cysteine mutagenesis of intracellular basic residues. (A) Schematic representation of TASK-2 topology showing the sequences of segments of the protein predicted to be intracellular or intracellular-facing. Basic residues are highlighted in red. (B) Recording from an excised inside-out patch of membrane taken from a HEK-293 cell over-expressing TASK-2. The patch was held at −60 mV in the presence of 1 mM ATP. At the intervals indicated by the boxes the intracellular aspect of the membrane was exposed to 300 μM Neomycin and then to 100 μM TPeA. At the end of the TPeA period the patch was additionally exposed to 1 mM MTSET as shown by the black box. (C and D) experiments as in (B), but with inside-out membrane patches obtained from cells expressing the mutants TASK-2-H327C and TASK-2-K297C respectively. In D the reducing agent DTT was also added at 2 mM. (E) Summary of experiments comparing the current before and after treatment with MTSET.
Mus musculus TASK-2 (GenBank accession No. AF319542) plasmid was that obtained from mouse kidney. The cDNAs was subcloned into the pCR3.1 vector. Mutations were made by site-directed mutagenesis into the pCR3.1 vector as previously described[69] and confirmed by sequencing. HEK-293 cells were cultured in Dulbecco’s modified Eagle’s medium (DMEM) and F12 Ham’s medium at a 1:1 ratio and supplemented with 10% fetal calf serum at 37 °C in 5% CO2. For electrophysiological experiments, transient transfections were performed by electroporation, using CD8 cotransfection to identify effectively transfected cells. […] Experiments were performed 4–8 h after electroporation. […]
as §1

[3] = molecular target: T3, TASK-2 (Mus musculus, UniProt F6V9U5); assay: Excised inside-out patch recording from HEK-293 cells over-expressing TASK-2; conditions: 1 mM, inside-out patch
T3 construct: expressed in transfected cells; host or cells: HEK-293
T3 sequence (F6V9U5 1-502): T1 sequence (F6V9U5 1-502 K254C) with C254K
Procedure: Recordings in the inside-out isolated patch configuration were performed in the gap-free mode at −60 mV. The inside aspect of the patch was bathed with a solution containing in mM: 10 KCl, 10 Glucose, 1 MgCl2, 10 EGTA, 1 Na3ATP, 0.1 GTP, 6.8 g/100 ml Sucrose, 10 Hepes/Tris, pH 7.4. The pipette contained in mM: 140 KCl, 10 Glucose, 6.8 g/100 ml Sucrose, 10 Hepes/Tris pH 7.4. For isolated patches, borosilicate capillaries (Harvard Apparatus GC150F-10 1.5 ODx0.86 ID) were fire polished to 4–5 MΩ and covered in beeswax. Acquisition was at 10 kHz with filter at 3 kHz (4-pole Bessel) and analysis was done with Clampfit 9.0 (Axon Instruments, Foster City, CA, USA). Traces shown are prints from crude Clampfit screen shots and quantification was done using the average currents were calculated at intervals using Clampfit after baseline adjustment.

[4] = 1 mM, in the presence of TPeA, inside-out patch

Effect of MTSET on TASK-2-K254C activity [1, 4]: significantly activated
MTSET effect ([1]; mutation K254C): ✓
Effect of MTSET on TASK-2-K297C activity [2, 4]: markedly enhanced
MTSET effect ([2]; mutation K297C): ✓
Effect of MTSET on WT TASK-2 activity ([3]; without TPeA, 1 mM ATP, Fig. S4): markedly reduced
SMILES: C[N+](C)(C)CCSS(C)(=O)=O.[Cl-] [MTSET, [2-(trimethylammonium)ethyl] methanethiosulfonate chloride]
Effect of MTSET on WT TASK-2 channel activity ([3]; brief intracellular exposure in the presence of TPeA): Neither WT nor H327C channel activity is affected
